Data on 2 compounds can be found in US6369074B1, “Aminomethylene substituted non-aromatic heterocycles and use as substance P antagonists” (Pfizer Inc., priority 1992, dated 2002).

Structures can show the parent of a compound that is named as a salt.

The term melting point denotes the temperature of the solid-liquid transition.

On to `COc1ccc2c(C)c(C)sc2c1CN[C@H]1CCCN[C@H]1c1ccccc1.Cl.Cl.O` (hydrate or solvate), for which the melting point was 240 to 244 °C. To `COc1ccc(-n2c(C)ccc2C)cc1CN[C@H]1CCCN[C@H]1c1ccccc1` (as salt: hydrochloride) [Example 19, (2S,3S)-[5-(2,5-Dimethylpyrrol-1-yl)-2-methoxybenzyl]-(2-phenylpiperidin-3-yl) amine] belongs 217 °C (dec.).
